From ChEMBL document CHEMBL3217528, “Bicyclic imidazole-4-one derivatives: a new class of antagonists for the orphan G protein-coupled receptors GPR18 and GPR55” (Medchemcomm, 2014)
Activity calls are given as the source filed them. The rule behind the calls is not given here.

Assays:
[1] = biological target: T1, G-protein coupled receptor 35 (Homo sapiens, UniProt Q9HC97); experiment: Agonist activity at human GPR35 assessed as induction of beta-arrestin recruitment by beta-galactosidase enzyme fragment complementation method relative to zaprinast; set-up: concentration or dose not given beside the values
[2] = biological target: T2, G-protein coupled receptor 55 (Homo sapiens, UniProt Q9Y2T6); experiment: Agonist activity at human GPR55 expressed in CHO cells assessed as induction of LPI-induced beta-arrestin recruitment by beta-galactosidase enzyme fragment complementation method relative to LPI; assay type: cell-based; set-up: concentration or dose not given beside the values
[3] = Displacement of [3H]diazepam from GABAA receptor in rat brain cortical membranes; assay type: cell membranes
Cannabinoid receptor 2 [4] = biological target: T3, Cannabinoid receptor 2 (Homo sapiens, UniProt P34972); experiment: Intrinsic activity at human recombinant CB2 receptor expressed in HEK293 cell membranes assessed as stimulation of [35S]GTPgammaS binding at 10 uM by liquid scintillation counting method relative to CP55,940; assay type: functional
[5] = biological target: T4, N-arachidonyl glycine receptor (Homo sapiens, UniProt Q14330); experiment: Antagonist activity against human GPR18 expressed in CHO cells assessed as reduction in delta9-THC-induced beta-arrestin recruitment by beta-galactosidase enzyme fragment complementation method; assay type: cell-based
T4 sequence (Q14330 whole entry): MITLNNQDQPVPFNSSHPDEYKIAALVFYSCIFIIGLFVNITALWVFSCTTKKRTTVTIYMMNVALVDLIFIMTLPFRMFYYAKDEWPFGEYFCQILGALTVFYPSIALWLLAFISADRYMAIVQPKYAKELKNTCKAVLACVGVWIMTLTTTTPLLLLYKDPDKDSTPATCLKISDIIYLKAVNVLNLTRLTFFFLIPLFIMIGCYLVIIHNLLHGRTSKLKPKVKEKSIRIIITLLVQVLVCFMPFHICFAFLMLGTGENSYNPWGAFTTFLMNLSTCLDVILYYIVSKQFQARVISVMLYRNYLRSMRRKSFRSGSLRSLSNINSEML

[6] = biological target: T1, G-protein coupled receptor 35; experiment: Agonist activity at human GPR35 assessed as induction of beta-arrestin recruitment by beta-galactosidase enzyme fragment complementation method
[7] = biological target: T5, N-arachidonyl glycine receptor (Homo sapiens) (UniProt Q14330); experiment: Antagonist activity against human GPR18 expressed in CHO cells assessed as reduction in delta9-THC-induced beta-arrestin recruitment at 10 uM by beta-galactosidase enzyme fragment complementation method; assay type: cell-based
T5 sequence (whole entry): T4 sequence (Q14330 whole entry)

Cannabinoid receptor 2 [8] = biological target: T3, Cannabinoid receptor 2; experiment: Displacement of [3H]CP55,940 from human recombinant CB2 receptor expressed in HEK293 cells; assay type: cell-based
[9] = biological target: T1, G-protein coupled receptor 35; experiment: Antagonist activity at human GPR35 assessed as reduction of zaprinast-induced beta-arrestin recruitment by beta-galactosidase enzyme fragment complementation method relative to untreated control; set-up: concentration or dose not given beside the values; settings: concentration not given here
[10] = biological target: T5, N-arachidonyl glycine receptor (Homo sapiens); experiment: Agonist activity at human GPR18 expressed in CHO cells assessed as induction of beta-arrestin recruitment by beta-galactosidase enzyme fragment complementation method relative to delta9-THC; assay type: cell-based; set-up: concentration or dose not given beside the values
[11] = biological target: T1, G-protein coupled receptor 35; experiment: Antagonist activity at human GPR35 assessed as reduction of zaprinast-induced beta-arrestin recruitment by beta-galactosidase enzyme fragment complementation method
[12] = biological target: Cannabinoid receptor 1 (Rattus norvegicus) (UniProt P20272); experiment: Intrinsic activity at CB1 receptor in rat brain cortical membranes assessed as stimulation of [35S]GTPgammaS binding at 10 uM by liquid scintillation counting method relative to CP55,940; assay type: functional, cell membranes
Cannabinoid receptor 1 [13] = biological target: T6, Cannabinoid receptor 1 (Homo sapiens, UniProt P21554); experiment: Displacement of [3H]CP55,940 from human recombinant CB1 receptor expressed in CHO-K1 cells; assay type: cell-based
[14] = biological target: T2, G-protein coupled receptor 55; experiment: Agonist activity at human GPR55 expressed in CHO cells assessed as induction of LPI-induced beta-arrestin recruitment by beta-galactosidase enzyme fragment complementation method; assay type: cell-based
Cannabinoid receptor 1 [15] = biological target: T6, Cannabinoid receptor 1; experiment: Agonist activity at human recombinant CB1 receptor expressed in CHO-K1 cell membranes assessed effect on forskolin-induced cAMP accumulation at 10 uM; assay type: functional, cell-based
Cannabinoid receptor 1 [16] = biological target: T6, Cannabinoid receptor 1; experiment: Intrinsic activity at human recombinant CB1 receptor expressed in HEK293 cell membranes assessed as stimulation of [35S]GTPgammaS binding at 10 uM by liquid scintillation counting method relative to CP55,940; assay type: functional
Cannabinoid receptor 1 [17] = biological target: Cannabinoid receptor 1 (Rattus norvegicus, UniProt P20272); experiment: Displacement of [3H]CP55,940 from CB1 receptor in rat brain cortical membranes; assay type: cell membranes
[18] = biological target: T2, G-protein coupled receptor 55; experiment: Antagonist activity against human GPR55 expressed in CHO cells assessed as reduction in LPI-induced beta-arrestin recruitment by beta-galactosidase enzyme fragment complementation method; assay type: cell-based
[19] = biological target: T2, G-protein coupled receptor 55; experiment: Antagonist activity against human GPR55 expressed in CHO cells assessed as reduction in LPI-induced beta-arrestin recruitment at 10 uM by beta-galactosidase enzyme fragment complementation method; assay type: cell-based
Cannabinoid receptor 2 [20] = biological target: T3, Cannabinoid receptor 2; experiment: Agonist activity at human recombinant CB2 receptor expressed in CHO-K1 cell membranes assessed effect on forskolin-induced cAMP accumulation at 10 uM; assay type: functional, cell-based
Cannabinoid receptor 1 [21] = biological target: T6, Cannabinoid receptor 1; experiment: Displacement of [3H]CP55,940 from human recombinant CB1 receptor expressed in CHO-K1 cells at 10 uM; assay type: cell-based
Cannabinoid receptor 2 [22] = biological target: T3, Cannabinoid receptor 2; experiment: Displacement of [3H]CP55,940 from human recombinant CB2 receptor expressed in HEK293 cells at 10 uM; assay type: cell-based
[23] = biological target: T4, N-arachidonyl glycine receptor; experiment: Agonist activity at human GPR18 expressed in CHO cells assessed as induction of beta-arrestin recruitment by beta-galactosidase enzyme fragment complementation method; assay type: cell-based
[24] = biological target: Cannabinoid receptor 1 (Rattus norvegicus) (UniProt P20272); experiment: Displacement of [3H]CP55,940 from CB1 receptor in rat brain cortical membranes at 10 uM; assay type: cell membranes
[25] = biological target: T2, G-protein coupled receptor 55; experiment: Allosteric antagonist activity against human GPR55 expressed in CHO cells assessed as induction of rightward shift of concentration response curve of LPI-induced beta-arrestin recruitment at 10 uM by beta-galactosidase enzyme fragment complementation method; assay type: cell-based

T6 sequence (P21554 whole entry, the tested form may be a part): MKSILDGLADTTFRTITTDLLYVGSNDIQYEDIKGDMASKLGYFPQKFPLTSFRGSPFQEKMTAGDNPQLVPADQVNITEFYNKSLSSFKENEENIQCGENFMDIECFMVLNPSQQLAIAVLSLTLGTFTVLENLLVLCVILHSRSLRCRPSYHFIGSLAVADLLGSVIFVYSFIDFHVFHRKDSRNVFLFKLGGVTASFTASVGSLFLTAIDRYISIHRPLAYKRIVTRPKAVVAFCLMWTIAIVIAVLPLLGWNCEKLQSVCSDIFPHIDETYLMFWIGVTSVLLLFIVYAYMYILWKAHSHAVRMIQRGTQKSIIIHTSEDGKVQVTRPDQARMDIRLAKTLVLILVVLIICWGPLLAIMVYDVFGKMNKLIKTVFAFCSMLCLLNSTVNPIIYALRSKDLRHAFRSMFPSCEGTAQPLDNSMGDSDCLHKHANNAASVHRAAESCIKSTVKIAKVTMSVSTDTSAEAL
Chain of Cannabinoid receptor 1 (Rattus norvegicus, UniProt P20272) (P20272 whole entry, the tested form may be a part): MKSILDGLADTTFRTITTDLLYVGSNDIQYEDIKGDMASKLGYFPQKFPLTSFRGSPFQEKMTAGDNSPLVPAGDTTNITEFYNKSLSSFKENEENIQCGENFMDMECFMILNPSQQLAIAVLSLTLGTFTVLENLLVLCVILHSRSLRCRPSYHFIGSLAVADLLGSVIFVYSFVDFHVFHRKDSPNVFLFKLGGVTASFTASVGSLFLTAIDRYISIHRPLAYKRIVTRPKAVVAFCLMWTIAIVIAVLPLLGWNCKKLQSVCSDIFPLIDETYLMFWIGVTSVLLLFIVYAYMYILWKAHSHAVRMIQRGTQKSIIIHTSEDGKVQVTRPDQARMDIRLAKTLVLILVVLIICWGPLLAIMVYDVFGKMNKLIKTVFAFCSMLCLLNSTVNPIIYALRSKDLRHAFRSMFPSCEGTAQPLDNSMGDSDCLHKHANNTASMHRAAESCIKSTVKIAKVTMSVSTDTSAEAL
Chain of Cannabinoid receptor 1 (Rattus norvegicus) (P20272 whole entry, the tested form may be a part): as above
T3 sequence (P34972 whole entry, the tested form may be a part): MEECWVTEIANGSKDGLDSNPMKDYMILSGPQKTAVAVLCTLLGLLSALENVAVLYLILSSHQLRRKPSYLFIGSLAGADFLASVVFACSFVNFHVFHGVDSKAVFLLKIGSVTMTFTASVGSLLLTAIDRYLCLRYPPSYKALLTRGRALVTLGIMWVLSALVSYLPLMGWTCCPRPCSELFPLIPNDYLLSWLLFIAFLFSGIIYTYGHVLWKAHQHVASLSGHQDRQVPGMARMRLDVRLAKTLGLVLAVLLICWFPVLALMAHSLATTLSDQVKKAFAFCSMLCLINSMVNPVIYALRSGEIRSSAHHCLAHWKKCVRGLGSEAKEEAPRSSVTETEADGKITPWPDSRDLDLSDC
T1 sequence (Q9HC97 whole entry, the tested form may be a part): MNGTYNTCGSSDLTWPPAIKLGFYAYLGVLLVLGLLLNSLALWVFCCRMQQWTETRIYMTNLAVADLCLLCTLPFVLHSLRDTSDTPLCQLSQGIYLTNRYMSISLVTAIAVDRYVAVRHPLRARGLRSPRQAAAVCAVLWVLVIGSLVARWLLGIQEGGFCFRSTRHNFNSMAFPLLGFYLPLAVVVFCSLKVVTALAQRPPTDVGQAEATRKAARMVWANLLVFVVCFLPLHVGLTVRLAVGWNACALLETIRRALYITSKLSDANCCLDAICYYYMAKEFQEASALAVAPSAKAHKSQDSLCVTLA
T2 sequence (Q9Y2T6 whole entry, the tested form may be a part): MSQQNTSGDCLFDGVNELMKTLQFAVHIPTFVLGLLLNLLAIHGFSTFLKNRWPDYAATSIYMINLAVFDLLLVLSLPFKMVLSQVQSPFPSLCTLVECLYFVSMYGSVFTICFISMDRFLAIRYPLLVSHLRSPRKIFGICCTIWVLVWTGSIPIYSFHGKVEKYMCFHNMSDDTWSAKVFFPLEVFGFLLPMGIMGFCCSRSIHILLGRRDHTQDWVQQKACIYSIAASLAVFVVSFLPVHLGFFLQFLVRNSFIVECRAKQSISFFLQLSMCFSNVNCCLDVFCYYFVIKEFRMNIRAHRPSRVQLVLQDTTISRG

SMILES	Activity [1] [%]	Activity [2] [%]	Ki [3] [µM]	IC50 [5] [µM]	EC50 [6] [µM]	inhibition [7] [%]	Ki (Cannabinoid receptor 2 [8]) [µM]	inhibition [9] [%]	Activity [10] [%]	IC50 [11] [µM]	Intrinsic activity [12] [%]	Ki (Cannabinoid receptor 1 [13]) [µM]	Activity (Cannabinoid receptor 1 [15])	Intrinsic activity (Cannabinoid receptor 1 [16]) [%]	Ki (Cannabinoid receptor 1 [17]) [µM]	IC50 [18] [µM]	inhibition [19] [%]	inhibition (Cannabinoid receptor 1 [21]) [%]	inhibition (Cannabinoid receptor 2 [22]) [%]	other results
O=C1/C(=C/c2cccc(OCc3ccc(Cl)cc3)c2)N=C2SCCCCN12	6	70	> 10	> 10	> 10	31	4.15	1	0	> 10	-15	0.25	inactive	-40	0.82					Intrinsic activity (Cannabinoid receptor 2 [4]): -59%; EC50 [14]: 10.7 µM
O=C1/C(=C/c2cccc(OCc3ccc(Cl)cc3Cl)c2)N=C2SCCCCN12		16	> 10	4.61			1.65		0		-21	3.18		-44	2.53	> 10	33			Activity (Cannabinoid receptor 2 [20]): inactive
O=C1/C(=C/c2cccc(OCc3ccc(Cl)cc3)c2)N=C2SCCCN12	-1	21	> 10	0.279	> 10		4.03	3	0	> 10	-7	> 10		-16	8.24	> 10	0	0		
O=C1/C(=C/c2cccc(OCc3cccc(Cl)c3)c2)N=C2SCCCCN12	-3	52		> 10	> 10	15	> 10	25	0	> 10	-12	2.16		-14	2.46	> 10	27		37	
Cc1c(C(=O)NN2CCCCC2)nn(-c2ccc(Cl)cc2Cl)c1-c1ccc(Cl)cc1 [RIMONABANT]																				EC50 [23]: 10.1 µM
O=C1/C(=C/c2cccc(OCc3ccc(F)cc3)c2)N=C2SCCCCN12		19		> 10		5	1.56		0		-16	0.85	inactive	-16	0.73	> 10	12			Activity (Cannabinoid receptor 2 [20]): inactive
O=C1N2CCCCSC2=NC1(c1ccccc1)c1ccccc1		54		> 10		0	> 10		15		-15	1.34	inactive	-16	3.94	> 10	6		14	
O=C1/C(=C/c2cccc(Cl)c2Cl)N=C2SCCCN12		3		> 10		0	> 10		17			> 10			> 10	6.91		12	40	inhibition [24]: 6%; Allosteric antagonist activity [25]: Active
COc1ccc(/C=C2\N=C3SCCCN3C2=O)c(OC)c1	-7	0		> 10	> 10	7	2.57	20	0	> 10		≥ 10			> 10	9.77		42		inhibition [24]: 12%
